Assays:
[1] = biological target: T1, Adrenergic receptor alpha-2 (Rattus norvegicus) (UniProt P22086+P19328+P22909)
[2] = biological target: T2, Alpha-1A adrenergic receptor (Bos taurus, UniProt P18130); assay: Binding activity against alpha-1 adrenergic receptor from calf cerebral cortex, using [3H]-prazosin as the radioligand; format: tissue-based
T2 sequence (P18130 whole entry): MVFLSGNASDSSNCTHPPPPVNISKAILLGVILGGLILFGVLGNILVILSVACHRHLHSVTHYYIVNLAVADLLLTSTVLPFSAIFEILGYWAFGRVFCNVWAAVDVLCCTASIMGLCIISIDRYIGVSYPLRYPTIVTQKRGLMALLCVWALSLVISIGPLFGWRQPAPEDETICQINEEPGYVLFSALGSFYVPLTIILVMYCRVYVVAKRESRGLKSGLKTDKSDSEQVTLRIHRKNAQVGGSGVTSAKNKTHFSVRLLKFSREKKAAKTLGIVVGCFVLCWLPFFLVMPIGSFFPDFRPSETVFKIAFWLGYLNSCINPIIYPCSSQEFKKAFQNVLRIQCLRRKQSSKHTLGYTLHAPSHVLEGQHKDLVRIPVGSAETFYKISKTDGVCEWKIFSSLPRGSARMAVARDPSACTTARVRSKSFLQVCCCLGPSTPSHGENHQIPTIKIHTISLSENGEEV

[3] = biological target: T3, Alpha-2A adrenergic receptor (Bos taurus, UniProt Q28838); assay: Binding activity against alpha-2 adrenergic receptor from calf cerebral cortex, using [3H]clonidine as the radioligand; format: tissue-based
T3 sequence (Q28838 whole entry): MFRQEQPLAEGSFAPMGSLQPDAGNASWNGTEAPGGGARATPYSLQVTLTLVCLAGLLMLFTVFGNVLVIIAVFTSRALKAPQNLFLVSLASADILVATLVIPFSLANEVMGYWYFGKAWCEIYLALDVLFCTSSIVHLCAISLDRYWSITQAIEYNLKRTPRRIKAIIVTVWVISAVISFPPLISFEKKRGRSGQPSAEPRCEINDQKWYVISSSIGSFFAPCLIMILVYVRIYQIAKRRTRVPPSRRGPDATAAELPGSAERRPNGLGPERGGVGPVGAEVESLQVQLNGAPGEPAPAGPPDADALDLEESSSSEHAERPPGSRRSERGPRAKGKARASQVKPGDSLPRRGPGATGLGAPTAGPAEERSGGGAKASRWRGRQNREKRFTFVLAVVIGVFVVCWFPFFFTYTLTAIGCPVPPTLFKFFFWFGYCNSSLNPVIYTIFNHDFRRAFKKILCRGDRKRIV

[4] = biological target: T4, Adrenergic receptor alpha-2 (Rattus norvegicus, UniProt P22086+P19328+P22909); assay: Presynaptic antagonistic activity against alpha-2 adrenergic receptor from rat, isolated, field-stimulated vas deferens, using clonidine as the agonist; format: functional
T4 sequence (P22086 whole entry): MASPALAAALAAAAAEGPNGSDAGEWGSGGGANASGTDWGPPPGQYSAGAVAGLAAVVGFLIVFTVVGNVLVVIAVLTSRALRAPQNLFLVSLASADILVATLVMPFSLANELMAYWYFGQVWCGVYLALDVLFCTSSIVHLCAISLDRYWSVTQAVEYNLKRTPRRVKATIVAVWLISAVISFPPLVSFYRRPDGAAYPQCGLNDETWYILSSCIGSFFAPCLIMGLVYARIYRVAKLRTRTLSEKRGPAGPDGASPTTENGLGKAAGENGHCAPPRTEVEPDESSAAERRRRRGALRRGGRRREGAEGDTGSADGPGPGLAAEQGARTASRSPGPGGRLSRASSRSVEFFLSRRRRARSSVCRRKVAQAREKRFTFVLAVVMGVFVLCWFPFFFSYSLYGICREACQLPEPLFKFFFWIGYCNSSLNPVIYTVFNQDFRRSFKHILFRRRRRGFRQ
T4 sequence (P19328 whole entry): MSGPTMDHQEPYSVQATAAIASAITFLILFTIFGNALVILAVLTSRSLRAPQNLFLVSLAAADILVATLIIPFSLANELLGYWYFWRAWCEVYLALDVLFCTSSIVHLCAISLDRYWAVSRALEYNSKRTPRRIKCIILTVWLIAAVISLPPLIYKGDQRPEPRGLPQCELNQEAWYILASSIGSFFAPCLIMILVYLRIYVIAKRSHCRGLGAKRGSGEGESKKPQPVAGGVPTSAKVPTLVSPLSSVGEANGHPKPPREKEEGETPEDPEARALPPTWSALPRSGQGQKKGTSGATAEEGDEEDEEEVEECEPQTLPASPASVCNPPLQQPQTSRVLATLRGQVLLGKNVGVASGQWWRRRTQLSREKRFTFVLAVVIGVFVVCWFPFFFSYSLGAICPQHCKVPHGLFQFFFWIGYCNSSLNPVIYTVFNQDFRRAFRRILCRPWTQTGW
T4 sequence (P22909 whole entry): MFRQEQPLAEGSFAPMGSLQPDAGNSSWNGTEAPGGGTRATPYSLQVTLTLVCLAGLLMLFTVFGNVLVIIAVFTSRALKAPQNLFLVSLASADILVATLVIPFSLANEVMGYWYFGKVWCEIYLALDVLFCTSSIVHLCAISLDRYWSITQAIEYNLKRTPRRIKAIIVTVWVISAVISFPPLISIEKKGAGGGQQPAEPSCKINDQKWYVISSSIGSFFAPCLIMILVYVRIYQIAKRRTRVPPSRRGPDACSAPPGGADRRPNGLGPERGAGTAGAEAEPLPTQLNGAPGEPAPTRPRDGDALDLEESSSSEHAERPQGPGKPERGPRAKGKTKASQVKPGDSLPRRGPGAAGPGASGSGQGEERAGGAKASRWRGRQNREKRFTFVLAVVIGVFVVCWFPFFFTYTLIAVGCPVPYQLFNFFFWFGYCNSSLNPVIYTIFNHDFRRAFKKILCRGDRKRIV

[5] = biological target: T5, Adrenergic receptor alpha-1 (Rattus norvegicus, UniProt P15823+P23944+P43140); assay: Presynaptic antagonistic activity against alpha-1 adrenergic receptor from rat, isolated, field-stimulated vas deferens, using methoxamine as the agonist; format: functional
T5 sequence (P15823 whole entry): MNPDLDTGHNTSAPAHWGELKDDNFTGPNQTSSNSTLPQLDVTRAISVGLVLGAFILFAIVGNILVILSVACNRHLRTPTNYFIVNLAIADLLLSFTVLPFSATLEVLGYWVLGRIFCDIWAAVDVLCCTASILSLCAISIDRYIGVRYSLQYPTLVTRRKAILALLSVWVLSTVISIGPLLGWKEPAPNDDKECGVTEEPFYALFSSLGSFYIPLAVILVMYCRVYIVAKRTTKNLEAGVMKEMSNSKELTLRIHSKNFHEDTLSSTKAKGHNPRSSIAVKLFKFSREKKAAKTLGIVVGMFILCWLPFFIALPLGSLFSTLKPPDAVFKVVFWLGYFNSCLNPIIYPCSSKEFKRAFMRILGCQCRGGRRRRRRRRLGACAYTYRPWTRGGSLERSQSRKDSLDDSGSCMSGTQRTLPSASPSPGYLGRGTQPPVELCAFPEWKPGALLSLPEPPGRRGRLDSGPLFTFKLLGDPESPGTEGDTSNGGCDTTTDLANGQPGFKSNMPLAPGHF
T5 sequence (P23944 whole entry): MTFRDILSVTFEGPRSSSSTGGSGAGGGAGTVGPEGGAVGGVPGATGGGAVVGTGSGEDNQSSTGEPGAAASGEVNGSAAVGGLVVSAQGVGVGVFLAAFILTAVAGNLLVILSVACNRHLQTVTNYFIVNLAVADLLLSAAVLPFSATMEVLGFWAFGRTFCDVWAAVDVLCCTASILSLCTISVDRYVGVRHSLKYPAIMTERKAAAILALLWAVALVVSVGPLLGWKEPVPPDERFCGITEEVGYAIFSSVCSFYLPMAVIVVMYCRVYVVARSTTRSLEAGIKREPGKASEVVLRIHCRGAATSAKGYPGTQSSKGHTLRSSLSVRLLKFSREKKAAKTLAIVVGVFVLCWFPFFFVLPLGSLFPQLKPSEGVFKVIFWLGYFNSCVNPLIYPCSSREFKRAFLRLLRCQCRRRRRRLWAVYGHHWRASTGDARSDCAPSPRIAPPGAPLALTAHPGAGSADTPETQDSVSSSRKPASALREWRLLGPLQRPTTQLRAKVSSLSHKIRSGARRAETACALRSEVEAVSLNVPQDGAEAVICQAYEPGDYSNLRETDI
T5 sequence (P43140 whole entry): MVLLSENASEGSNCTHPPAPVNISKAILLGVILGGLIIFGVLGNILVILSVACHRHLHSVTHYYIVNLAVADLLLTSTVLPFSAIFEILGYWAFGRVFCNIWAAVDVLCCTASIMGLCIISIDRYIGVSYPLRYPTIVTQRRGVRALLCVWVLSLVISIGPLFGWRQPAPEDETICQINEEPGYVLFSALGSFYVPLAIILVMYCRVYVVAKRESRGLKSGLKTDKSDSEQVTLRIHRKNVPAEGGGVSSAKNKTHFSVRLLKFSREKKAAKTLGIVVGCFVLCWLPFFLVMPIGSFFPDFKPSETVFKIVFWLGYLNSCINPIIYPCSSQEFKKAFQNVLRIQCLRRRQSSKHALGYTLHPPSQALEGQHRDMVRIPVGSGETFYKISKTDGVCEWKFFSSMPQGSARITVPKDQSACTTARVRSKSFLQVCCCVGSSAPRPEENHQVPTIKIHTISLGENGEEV

[6] = biological target: T1, Adrenergic receptor alpha-2 (Rattus norvegicus); assay: Antagonistic activity against central alpha-2 adrenergic receptor, in anesthetized rats, by reversing the established clonidine-induced mydriasis; 0.3-1; format: functional

Structure (SMILES)	AD50 [1]	Ki [2]	Ki [3]	pA2 [4]	pA2 [5]	AD50 [6]
CN1CCN2c3ccccc3Cc3ccccc3C2C1 (stereo unspecified)	> 10 mg/kg					
COC(=O)[C@@H]1[C@H]2C[C@H]3c4[nH]c5ccccc5c4CCN3C[C@@H]2CC[C@@H]1O	1.04 mg/kg					
FC(F)(F)c1cccnc1N1CCNCC1	3.63 mg/kg	2850 nM	97 nM	< 5.8		
Clc1cccnc1N1CCNCC1	0.44 mg/kg	1800 nM		6.9	5.7	
c1ccc2c(c1)OCC(C1=NCCN1)O2 (stereo unspecified) [IDAZOXAN]	0.05 mg/kg	500 nM	1.5 nM			
Clc1cnc(N2CCNCC2)c(Cl)c1	> 3 mg/kg	800 nM	500 nM	< 5.8		
O=[N+]([O-])c1cccnc1N1CCNCC1	1.53 mg/kg	3800 nM	26 nM	6.3		
Clc1cccc(N2CCNCC2)n1		375 nM		6.8	6	0.3 mg/kg
c1ccc(N2CCNCC2)nc1	1.28 mg/kg	2400 nM		6.4	5.7	
Clc1ccc(N2CCNCC2)nc1	> 3 mg/kg	900 nM	1340 nM	< 5.8		
Fc1cccnc1N1CCNCC1	0.23 mg/kg	2500 nM	8.2 nM	6.9	5.18	
Cc1ccnc(N2CCNCC2)c1Cl	14 mg/kg	4300 nM	74 nM	5.9		
NC(=O)c1cccnc1N1CCNCC1	> 3 mg/kg	62000 nM	5200 nM	< 5.8		
Clc1cnccc1N1CCNCC1	> 3 mg/kg	6800 nM	390 nM	< 5.8		
CN1CCN(c2ncccc2F)CC1	0.67 mg/kg	490 nM	5 nM	7.4	6.2	
Nc1cccnc1N1CCNCC1	> 3 mg/kg	31000 nM	440 nM	< 5.8		
Clc1cccnc1N1CCN(Cc2ccccc2)CC1	> 3 mg/kg	700 nM	120 nM	6.5	7	
Brc1cccnc1N1CCNCC1	0.68 mg/kg	1480 nM		6.6	5.8	
CN1CCN(c2ncccc2Cl)CC1	0.56 mg/kg	215 nM	2.7 nM	7.4	6.5	
CN1CCN(c2ncccc2Br)CC1	0.74 mg/kg	160 nM		7.6	6.5	
N#Cc1cccnc1N1CCNCC1	1.07 mg/kg	2000 nM	14 nM	6.1		
Clc1ccccc1N1CCNCC1	1.03 mg/kg	160 nM	25 nM	6	6.5	
COC(=O)[C@H]1[C@H]2C[C@H]3c4[nH]c5ccccc5c4CCN3C[C@H]2CC[C@@H]1O	1.1 mg/kg					
Ic1cccnc1N1CCNCC1	1.95 mg/kg	1600 nM		6.2	6	

Source: ChEMBL document CHEMBL1122408, “Pyridinylpiperazines, a new class of selective alpha 2-adrenoceptor antagonists” (J Med Chem, 1983)
